Test system: LnCaP95 Parental cells
Assay: Cellular growth inhibition assay for LnCaP95 Parental cells, CellTiter-Glo
Type: cell-based
Conditions: CellTiterGlo assay, 6 days; parental vs LnCaP95 AR-FL KO cells
Procedure: T47D LnCap95 Parental and T47D LnCap95 AR-FL KO cells were seeded in 25 μL growth media in poly-d lysine coated black clear-bottom 384-well plates at 2500 cells/well with Phenol Red Free RPMI containing 10% charcoal stripped serum and 1% pen strep. Following seeding, plates were spun at 300×g for 30 seconds, then equilibrated to room temperature for 30 minutes, and moved into the incubator. 24 hours after seeding, compounds were titrated in 100% DMSO and diluted in growth medium. 25 μL of the compound/medium mixture was added to cells, bringing the total volume in each well to 50 μL. DMSO was used as a negative control.
After treatment, plates were spun at 300×g for 30 seconds, then cultured at 37° C. with 5% CO2 for 6 days in a humidified tissue culture incubator. On Day 6 of treatment, cell viability was quantified with CellTiter-Glo 2.0 reagent (Promega). Plates were equilibrated to room temperature for 30 minutes, then 25 μL of CellTiter-Glo 2.0 reagent was added to cells, bringing the total volume in each well to 75 μL. After reagent was added, plates were spun at 300×g for 30 seconds then mixed on a shaker for two minutes at 500 rpm and then incubated in dark at room temperature for 10 minutes. Following incubation, plates were spun at 300×g for 30 seconds, sealed with an optical adhesive cover, and luminescence readings were measured with an EnVision Plate Reader. […]

Row | SMILES | activity in parental LnCaP95 cells compared to AR knockout cells
1 | Cc1sc2c(c1C)C(c1ccc(OC3CC4(CCN(c5ncc(C(=O)N[C@H]6C(C)(C)[C@H](Oc7ccc(C#N)c(Cl)c7)C6(C)C)cn5)CC4)C3)cc1)=N[C@@H](Cc1ncco1)c1nnc(C)n1-2 [Compound I-49, N-[3-(3-chloro-4-cyano-phenoxy)-2,2,4,4-tetramethyl-cyclobutyl]-2-[2-[4-[(9S)-4,5,13-trimethyl-9-(oxazol-2-ylmethyl)-3-thia-1,8,11,12-tetrazatricyclo[8.3.0.02,6]trideca-2(6),4,7,10,12-pentaen-7-yl]phenoxy]-7-azaspiro[3.5]nonan-7-yl]pyrimidine-5-carboxamide] | enhanced activity in parental LnCaP95 cells

Same assay, conditions: LNCaP-95, 144 h; parental LnCaP95 cells, 6 days, CellTiterGlo assay

Row | SMILES | GI50 [nM]
2 | Cc1sc2c(c1C)C(c1ccc(OC3CC4(CCN(c5ncc(C(=O)N[C@H]6C(C)(C)[C@H](Oc7ccc(C#N)c(Cl)c7)C6(C)C)cn5)CC4)C3)cc1)=N[C@@H](Cc1ncco1)c1nnc(C)n1-2 [Compound I-49, N-[3-(3-chloro-4-cyano-phenoxy)-2,2,4,4-tetramethyl-cyclobutyl]-2-[2-[4-[(9S)-4,5,13-trimethyl-9-(oxazol-2-ylmethyl)-3-thia-1,8,11,12-tetrazatricyclo[8.3.0.02,6]trideca-2(6),4,7,10,12-pentaen-7-yl]phenoxy]-7-azaspiro[3.5]nonan-7-yl]pyrimidine-5-carboxamide] | 37

Molecular target: T1, progesterone receptor (Homo sapiens, UniProt P06401)
T1 construct: host or cells: T47D cells (cytosolic fraction)
T1 sequence (P06401 1-933): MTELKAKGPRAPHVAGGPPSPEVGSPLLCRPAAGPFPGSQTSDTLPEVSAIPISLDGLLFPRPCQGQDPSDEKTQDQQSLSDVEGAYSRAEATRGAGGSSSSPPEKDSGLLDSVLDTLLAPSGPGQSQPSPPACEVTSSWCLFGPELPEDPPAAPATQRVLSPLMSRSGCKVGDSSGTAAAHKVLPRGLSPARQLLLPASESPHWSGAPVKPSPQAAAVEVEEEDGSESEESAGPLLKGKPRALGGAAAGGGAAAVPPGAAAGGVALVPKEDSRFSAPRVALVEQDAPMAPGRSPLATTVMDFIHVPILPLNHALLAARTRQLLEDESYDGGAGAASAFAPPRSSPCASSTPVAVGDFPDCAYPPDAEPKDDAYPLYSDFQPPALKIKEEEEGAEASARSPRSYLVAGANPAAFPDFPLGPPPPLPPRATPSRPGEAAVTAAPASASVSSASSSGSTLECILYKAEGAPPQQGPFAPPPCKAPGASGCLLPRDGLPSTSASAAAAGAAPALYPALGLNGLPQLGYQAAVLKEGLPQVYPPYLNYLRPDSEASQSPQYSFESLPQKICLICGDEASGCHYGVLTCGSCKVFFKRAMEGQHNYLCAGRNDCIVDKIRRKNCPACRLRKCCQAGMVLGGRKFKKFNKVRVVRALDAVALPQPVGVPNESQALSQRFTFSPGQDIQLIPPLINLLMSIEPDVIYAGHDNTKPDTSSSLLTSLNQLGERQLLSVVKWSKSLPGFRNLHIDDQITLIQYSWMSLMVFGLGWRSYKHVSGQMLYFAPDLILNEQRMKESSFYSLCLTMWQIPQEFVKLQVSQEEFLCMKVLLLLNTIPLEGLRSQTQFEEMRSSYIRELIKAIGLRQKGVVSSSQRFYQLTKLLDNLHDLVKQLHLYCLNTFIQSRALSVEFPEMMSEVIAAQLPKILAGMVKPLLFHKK
Assay: PR Human Progesterone NHR Binding (Agonist Radioligand) Assay, T47D cytosol
Conditions: T47D cytosolic fractions, 0.5 nM [3H]progesterone, 1 hour at 4° C., Table 16
Procedure: Compounds were tested using the PR Human Progesterone NHR Binding (Agonist Radioligand) Assay, Cerep at Eurofins Discovery using a modified version of the protocol from Sarup et al. (Cancer Res 1988; 48:5071-5078). Briefly, cytosolic fractions of T47D cells were incubated with 0.5 nM [^3H]progesterone for 1 hour at 4° C. in the absence or presence of the test compound. Nonspecific binding was determined in the presence of 1 μM promegestone. Reactions were subjected to scintillation counting. Results are expressed as a percent inhibition of the control radioligand specific binding.

Row | Ki [nM] | SMILES
3 | < 50 | Cc1sc2c(c1C)C(c1ccc(CC3CC4(CCN(c5ncc(C(=O)N[C@H]6C(C)(C)[C@H](Oc7ccc(C#N)c(Cl)c7)C6(C)C)cn5)CC4)C3)cc1)=N[C@@H](C)c1nnc(C)n1-2 [Compound I-303]
4 | < 50 | CCNC(=O)C[C@@H]1N=C(c2ccc(N3CCC(OC4CCN(c5ncc(C(=O)N[C@H]6C(C)(C)[C@H](Oc7ccc(C#N)c(Cl)c7)C6(C)C)cn5)CC4)CC3)cc2)c2c(sc(C)c2C)-n2c(C)nnc21 [Compound I-114]
5 | < 50 | Cc1sc2c(c1C)C(c1ccc(OC3CC4(C3)CC3(CCN(c5ncc(C(=O)N[C@H]6C(C)(C)[C@H](Oc7ccc(C#N)c(Cl)c7)C6(C)C)cn5)CC3)C4)cc1)=N[C@@H](Cc1ncco1)c1nnc(C)n1-2 [Compound I-283]
6 | < 50 | Cc1sc2c(c1C)C(c1ccc(OCCOC3CCN(c4ncc(C(=O)N[C@H]5C(C)(C)[C@H](Oc6ccc(C#N)c(Cl)c6)C5(C)C)cn4)CC3)cc1)=N[C@@H](CC(=O)OC(C)(C)C)c1nnc(C)n1-2 [Compound I-235, tert-butyl 2-((S)-4-(4-(2-((1-(5-(((1r,3r)-3-(3-chloro-4-cyanophenoxy)-2,2,4,4-tetramethylcyclobutyl)carbamoyl)pyrimidin-2-yl)piperidin-4-yl)oxy)ethoxy)phenyl)-2,3,9-trimethyl-6H-thieno[3,2-f][1,2,4]triazolo[4,3-a][1,4]diazepin-6-yl)acetate]
7 | < 50 | CCNC(=O)C[C@@H]1N=C(c2ccc(OCC3CN(c4ncc(C(=O)N[C@H]5C(C)(C)[C@H](Oc6ccc(C#N)c(Cl)c6)C5(C)C)cn4)C3)cc2)c2c(sc(C)c2C)-n2c(C)nnc21 [Compound I-71]
8 | < 50 | Cc1sc2c(c1C)C(c1ccc(N3CC(C4CCN(c5ncc(C(=O)N[C@H]6C(C)(C)[C@H](Oc7ccc(C#N)c(Cl)c7)C6(C)C)cn5)CC4)C3)cc1)=N[C@@H](C)c1nnc(C)n1-2 [Compound I-271]
9 | < 50 | Cc1sc2c(c1C)C(c1ccc(N3CC(CC4CCN(c5ncc(C(=O)N[C@H]6C(C)(C)[C@H](Oc7ccc(C#N)c(Cl)c7)C6(C)C)cn5)CC4)C3)cc1)=N[C@@H](C)c1nnc(C)n1-2 [Compound I-270]
10 | 50 to 500 | Cc1sc2c(c1C)C(c1ccc(CC3CC4(CCN(c5ncc(C(=O)N[C@H]6C(C)(C)[C@H](Oc7ccc(C#N)c(Cl)c7)C6(C)C)cn5)CC4)C3)cc1)=N[C@@H](C)c1nnc(C)n1-2 [Compound I-436]
